According to patent US4299970A, “Oxy-alkylamino carboxylic esters” (Beecham Group Limited, priority 1974, dated 1981):
Values after ≈ are worked out from the molar mass of the structure shown.

Legend:
[1] = tested on: human platelet aggregation induced by collagen; experiment: inhibition of human platelet aggregation induced in vitro by collagen; type: cell-based
Experimental: (§1) b. The compounds were examined for their ability to inhibit human platelet aggregation induced, in vitro, either by adenosine diphosphate (ADP) or collagen. The compounds were added in saline or dimethylformamide to platelet rich plasma at 37° C. to give a final concentration of 10^-4 M. After 3 minutes the platelets were challenged with ADP or collagen. The aggregation response was then recorded relative to the control.

blood pressure = experiment: anti-hypertensive activity in the renal hypertensive rat; type: in vivo; conditions: 100 mg/kg, orally
Experimental: c. The anti-hypertensive activity of the compounds was determined in the renal hypertensive rat. Rats were made hypertensive by nephrectomy and treatment with deoxycorticosterone acetate/NaCl. The compounds were administered orally to a group of 3 hypertensive rats at a dose level of 100 mg/kg and their blood pressure was monitored after 4, 6 and 24 hours.

[2] = tested on: femoral artery of the hind limb; experiment: vasodilator activity in femoral artery of the hind limb (vascular resistance); type: in vivo, beagle dog; conditions: dose range of 0.01-1 mg/kg, intra-arterially
Experimental: (§2) b. The vasodilator activity of the compounds was determined in the femoral artery of the hind limb of the anaesthetised beagle dog. The method used was similar to that described by J. Nakano and J. R. McCurdy, (1967), J. Pharmac. Exp. Ther., 156, 538.
The compounds were administered into the iliac artery and the effects on both flow and pressure in the hind limb were recorded. Changes in vascular resistance (R) were calculated from the following expression: [formula]

[3] = tested on: total peripheral resistance; experiment: total peripheral resistance, intravenous; type: in vivo, beagle dog; conditions: dose range of 0.01-10 mg/kg, intra-venously
Experimental: as §2
In other experiments the compounds were administered into the left femoral vein and the right femoral arterial pressure and cardiac output were monitored. From these experiments, total peripheral resistance (TPR) was calculated from the expression: [formula]

[4] = tested on: guinea pig platelet aggregation induced by ADP; experiment: inhibition of guinea pig platelet aggregation induced in vitro by ADP; type: cell-based; conditions: Cavia porcellus, ADP 5.45×10^-7 M, platelet rich plasma, 37° C.
Experimental: a. The compounds were examined for their ability to inhibit guinea pig platelet aggregation induced, in vitro, by 5.45×10^-7 M adenosine diphosphate (ADP).
The method consisted of diluting the compound immediately before use from a 10 mg/ml solution in ethanol to a 1 mg/ml solution with saline and then adding the appropriate volume to 0.5 ml of platelet rich plasma. The mixture was stirred at 37° C. for 1 minute before 25 μl of an ADP solution was added to give a final ADP concentration of 5.45×10^-7 M. The aggregation response was then recorded relative to the control.

[5] = tested on: gerbil colon; contraction to prostaglandin F2α; experiment: prostaglandin antagonist activity on the isolated perfused gerbil colon (contraction to prostaglandin F2α); conditions: Meriones unguiculatus; reduction of contraction to prostaglandin F2α; one minute pre-contact time
Experimental: The compounds were tested for prostaglandin-like and for prostaglandin antagonist activity on the isolated perfused gerbil colon preparation (smooth muscle). This has been shown by J. R. Weeks, J. R. Schultz and W. E. Brown, (1968), J. App. Physiol, 25, 783, to have greater precision and sensitivity than other preparations. A 15 mm portion of the descending colon is suspended in an organ bath and perfused with De Jalon's saline at 32° C. Compounds were given in a three minute cycle with a 45 second contact time and a 15 second washout time. Antagonist compounds were given with a one minute pre-contact time.
Antagonist activity was determined by measuring the percentage reduction of the contraction to two standard doses of prostaglandin F2α which gave responses between 20% and 80% of maximum response.

[6] = tested on: human platelet aggregation induced by adenosine diphosphate (ADP); experiment: inhibition of human platelet aggregation induced in vitro by ADP; type: cell-based; conditions: 10^-4 M, platelet rich plasma, 37° C.
Experimental: as §1

IC50 ([1]; Platelet, read-out: IC50 against collagen-induced aggregation): 2.8 µM
IC50 [4]: 44 µM
IC50 [5]: 3.4 µg/mL (≈ 8.55 µM)
Compound: CCCCCC(O)CCN1C(=O)CCC(=O)C1CCCCCCC(=O)OCC (stereo not drawn) [Compound 73, 2-(6'-Ethoxycarbonyl-n-hexyl)-1-(3"-hydroxy-n-octyl)-piperidin-3,6-dione]
inhibition at 100 µM ([1]; 10^-4 M, collagen, platelet rich plasma, 37° C.): 100%
fall in blood pressure after 4 hours (blood pressure; 4 hours): 16%
blood pressure after 6 hours (blood pressure; 6 hours): risen to normal hypertensive levels
vascular resistance [2]: decreased vascular resistance
total peripheral resistance (TPR) [3]: decreased total peripheral resistance
inhibition at 100 µM [6]: 87%
